The values that follow are results of earlier work, collected in PubChem BioAssay AID1259409 (Chemical Carcinogenesis Research Information System (CCRIS), 2018).

The test system of this data set is rodent chemically induced tumor inhibition, incidence and multiplicity. Kind of data set: CCRIS tumor inhibitor studies.

As for `C=CC1=C(C)C2=CC3=NC(=C(CC(=O)O)C4=NC(=C(C)C4=C(O)O)C=c4[nH]c(c(C)c4CC)=CC1=N2)C(CCC(=O)O)C3C` (stereo not given), the outcome is 0/22 (0%), 2/20 (10%), -%, not significant (Carcinogen: 2-AMINO-3-METHYLIMIDAZO[4,5-F]QUINOLINE [76180-96-6], Dose [Inhibitor]: 0, 0.01% (W/V BASED ON TOTAL CHLORINS) IN DRINKING WATER BEGINNING 1 WK POST CARCINOGEN TREATMENT FOR THE DURATION STUDY, Route [Inhibitor]: ORAL, Species: RAT, Strain/Sex: F344/MALE, Target Tissue: Type of Lesion: SMALL INTESTINE: TUMOR, Dose [Carcinogen]: 0.03% IN DIET FOR FIRST 5 WK (STUDY DURATION: 52 WK), Promoter: NONE); 0/22 (0%), 0/22 (0%), 0%, not significant (Carcinogen: 2-AMINO-3-METHYLIMIDAZO[4,5-F]QUINOLINE [76180-96-6], Dose [Inhibitor]: 0, 0.1% (W/V BASED ON TOTAL CHLORINS) IN DRINKING WATER BEGINNING 1 WK POST CARCINOGEN TREATMENT FOR THE DURATION STUDY, Route [Inhibitor]: ORAL, Species: RAT, Strain/Sex: F344/MALE, Target Tissue: Type of Lesion: SMALL INTESTINE: TUMOR, Dose [Carcinogen]: 0.03% IN DIET FOR FIRST 5 WK (STUDY DURATION: 52 WK), Promoter: NONE); “liver: 74% reduction in vol % of liver occupied (p<0.001) colon; 63% reduction i” (Dose [Inhibitor]: 250 mg/kg chlorophyllin by gavage daily for 10 days (Study duration 18 wk) (Test material solvent: tricaprylin), Route [Inhibitor]: Oral, Species: Rat, Strain/Sex: F344/Male, Target Tissue: Type of Lesion: Liver: GST placental form positive foci. Colon: aberrant crypt foci, Dose [Carcinogen]: 250 ug/kg by gavage daily for 10 days along or in combination with inhibitor (Study duration 18 wk) (Test material solve, Promoter: None). In addition, the “tumour outcome (control, treated, inhibition, significance)” value reads like this: (Carcinogen: 2-AMINO-3-METHYLIMIDAZO[4,5-F]QUINOLINE [76180-96-6], Dose [Inhibitor]: 0, 0.01% (W/V BASED ON TOTAL CHLORINS) IN DRINKING WATER BEGINNING 1 WK POST CARCINOGEN TREATMENT FOR THE DURATION STUDY, Route [Inhibitor]: ORAL, Species: RAT, Strain/Sex: F344/MALE, Target Tissue: Type of Lesion: ZYMBAL'S GLAND: TUMOR, Dose [Carcinogen]: 0.03% IN DIET FOR FIRST 5 WK (STUDY DURATION: 52 WK), Promoter: NONE) 5/22 (23%), 5/20 (25%), -9%, not significant; (Carcinogen: 2-AMINO-3-METHYLIMIDAZO[4,5-F]QUINOLINE [76180-96-6], Dose [Inhibitor]: 0, 0.1% (W/V BASED ON TOTAL CHLORINS) IN DRINKING WATER BEGINNING 1 WK POST CARCINOGEN TREATMENT FOR THE DURATION STUDY, Route [Inhibitor]: ORAL, Species: RAT, Strain/Sex: F344/MALE, Target Tissue: Type of Lesion: COLON: TUMOR, Dose [Carcinogen]: 0.03% IN DIET FOR FIRST 5 WK (STUDY DURATION: 52 WK), Promoter: NONE) 2/22 (9%), 2/22 (9%), 0%, not significant; (Carcinogen: 2-AMINO-3-METHYLIMIDAZO[4,5-F]QUINOLINE [76180-96-6], Dose [Inhibitor]: 0, 0.1% (W/V BASED ON TOTAL CHLORINS) IN DRINKING WATER BEGINNING 1 WK POST CARCINOGEN TREATMENT FOR THE DURATION STUDY, Route [Inhibitor]: ORAL, Species: RAT, Strain/Sex: F344/MALE, Target Tissue: Type of Lesion: LIVER: TUMOR, Dose [Carcinogen]: 0.03% IN DIET FOR FIRST 5 WK (STUDY DURATION: 52 WK), Promoter: NONE) 16/22 (73%), 8/22 (36%), 51%, p<0.05; (Carcinogen: 2-AMINO-3-METHYLIMIDAZO[4,5-F]QUINOLINE [76180-96-6], Dose [Inhibitor]: 0, 0.1% (W/V BASED ON TOTAL CHLORINS) IN DRINKING WATER BEGINNING 1 WK POST CARCINOGEN TREATMENT FOR THE DURATION STUDY, Route [Inhibitor]: ORAL, Species: RAT, Strain/Sex: F344/MALE, Target Tissue: Type of Lesion: SKIN: TUMOR, Dose [Carcinogen]: 0.03% IN DIET FOR FIRST 5 WK (STUDY DURATION: 52 WK), Promoter: NONE) 7/22 (32%), 8/22 (36%), -12.5%, not significant; (Carcinogen: 2-AMINO-3-METHYLIMIDAZO[4,5-F]QUINOLINE [76180-96-6], Dose [Inhibitor]: 0, 0.1% (W/V BASED ON TOTAL CHLORINS) IN DRINKING WATER BEGINNING 1 WK POST CARCINOGEN TREATMENT FOR THE DURATION STUDY, Route [Inhibitor]: ORAL, Species: RAT, Strain/Sex: F344/MALE, Target Tissue: Type of Lesion: ZYMBAL'S GLAND: TUMOR, Dose [Carcinogen]: 0.03% IN DIET FOR FIRST 5 WK (STUDY DURATION: 52 WK), Promoter: NONE) 5/22 (23%), 3/22 (14%), 39%, not significant; (Carcinogen: 7,12-DIMETHYLBENZ[A]ANTHRACENE [57-97-6], Dose [Inhibitor]: 0, 0.5% IN 0.2 ML DMSO-ACETONE (15:85, V/V) 2X/WK FOR 30 WK 10 MIN PRIOR TO PROMOTER DOSE (STUDY DURATION: 31 WK), Route [Inhibitor]: DERMAL, Species: MOUSE, Strain/Sex: ICR/FEMALE, Target Tissue: Type of Lesion: SKIN: PAPILLOMA, Dose [Carcinogen]: 0.2 UMOL ONCE (STUDY DURATION: 31 WK), Promoter: 12-O-TETRADECANOYLPHORBOL-13-ACETATE [16561-29-8]) 100%, 40%, 60%, not calculated. In addition, the “tumour outcome (control, treated, inhibition, significance)” value by setting is: (Carcinogen: DIBENZO[A,L]PYRENE [191-30-0], Dose [Inhibitor]: 2052 PPM IN DIET FOR 3 WK BEGINNING 1 WK PRIOR TO FIRST CARCINOGEN DOSE (STUDY DURATION: 11 MONTHS), Route [Inhibitor]: ORAL, Species: FISH, Strain/Sex: SHASTA STRAIN RAINBOW TROUT/MALE,FEMALE, Target Tissue: Type of Lesion: LIVER: TUMOR, Dose [Carcinogen]: 500 PPM IN DIET FOR 2 WK (STUDY DURATION: 11 MONTHS), Promoter: NONE) 61%, 18%, 70%, p<0.001; (Carcinogen: DIBENZO[A,L]PYRENE [191-30-0], Dose [Inhibitor]: 2052 PPM IN DIET FOR 3 WK BEGINNING 1 WK PRIOR TO FIRST CARCINOGEN DOSE (STUDY DURATION: 11 MONTHS), Route [Inhibitor]: ORAL, Species: FISH, Strain/Sex: SHASTA STRAIN RAINBOW TROUT/MALE,FEMALE, Target Tissue: Type of Lesion: STOMACH: TUMOR, Dose [Carcinogen]: 500 PPM IN DIET FOR 2 WK (STUDY DURATION: 11 MONTHS), Promoter: NONE) 91%, 34%, 63%, p<0.001; (Carcinogen: DIBENZO[A,L]PYRENE [191-30-0], Dose [Inhibitor]: 2052 PPM IN DIET FOR 3 WK BEGINNING 1 WK PRIOR TO FIRST CARCINOGEN DOSE (STUDY DURATION: 11 MONTHS), Route [Inhibitor]: ORAL, Species: FISH, Strain/Sex: SHASTA STRAIN RAINBOW TROUT/MALE,FEMALE, Target Tissue: Type of Lesion: SWIM BLADDER: TUMOR, Dose [Carcinogen]: 500 PPM IN DIET FOR 2 WK (STUDY DURATION: 11 MONTHS), Promoter: NONE) 53%, 3%, 94%, p<0.001; (Carcinogen: DIBENZO[A,L]PYRENE [191-30-0], Dose [Inhibitor]: 4000 PPM IN DIET FOR 5 WK BEGINNING 1 WK PRIOR TO FIRST CARCINOGEN DOSE (STUDY DURATION: 9 MONTHS), Route [Inhibitor]: ORAL, Species: FISH, Strain/Sex: SHASTA STRAIN RAINBOW TROUT/MALE,FEMALE, Target Tissue: Type of Lesion: LIVER: TUMOR, Dose [Carcinogen]: 200 PPM IN DIET FOR 4 WK (STUDY DURATION: 9 MONTHS), Promoter: NONE) 36%, 13%, 64%, p<0.001; (Carcinogen: DIBENZO[A,L]PYRENE [191-30-0], Dose [Inhibitor]: 4000 PPM IN DIET FOR 5 WK BEGINNING 1 WK PRIOR TO FIRST CARCINOGEN DOSE (STUDY DURATION: 9 MONTHS), Route [Inhibitor]: ORAL, Species: FISH, Strain/Sex: SHASTA STRAIN RAINBOW TROUT/MALE,FEMALE, Target Tissue: Type of Lesion: STOMACH: TUMOR, Dose [Carcinogen]: 200 PPM IN DIET FOR 4 WK (STUDY DURATION: 9 MONTHS), Promoter: NONE) 48%, 13%, 73%, p<0.001; (Carcinogen: DIBENZO[A,L]PYRENE [191-30-0], Dose [Inhibitor]: 4000 PPM IN DIET FOR 5 WK BEGINNING 1 WK PRIOR TO FIRST CARCINOGEN DOSE (STUDY DURATION: 9 MONTHS), Route [Inhibitor]: ORAL, Species: FISH, Strain/Sex: SHASTA STRAIN RAINBOW TROUT/MALE,FEMALE, Target Tissue: Type of Lesion: SWIM BLADDER: TUMOR, Dose [Carcinogen]: 200 PPM IN DIET FOR 4 WK (STUDY DURATION: 9 MONTHS), Promoter: NONE) 30%, 5%, 83%, p<0.001.
